Drawing on US9926282B2, “Phthalazinones and isoquinolinones as rock inhibitors” (BRISTOL-MYERS SQUIBB COMPANY, priority 2013, dated 2018), this text covers IC50 for 31 compounds.

In assay [1] the target is ROCK1 (Homo sapiens (Human), UniProt Q13464). Description: ROCK assay (LABCHIP peptide phosphorylation), ROCK1. Type of assay: biochemical. The conditions noted are these: 5 μM ATP, 1.5 μM peptide substrate; read-out: ROCK1 IC50.
The target of assay [2] is ROCK2 (Homo sapiens (Human), UniProt O75116). As to the kind of experiment: ROCK assay (LABCHIP peptide phosphorylation), ROCK2. Type of assay: biochemical. The note with it: 5 μM ATP, 1.5 μM peptide substrate.

Where a name gives a salt, the structure may show the parent alone.

ROCK2, sequence (O75116 whole entry, species assumed): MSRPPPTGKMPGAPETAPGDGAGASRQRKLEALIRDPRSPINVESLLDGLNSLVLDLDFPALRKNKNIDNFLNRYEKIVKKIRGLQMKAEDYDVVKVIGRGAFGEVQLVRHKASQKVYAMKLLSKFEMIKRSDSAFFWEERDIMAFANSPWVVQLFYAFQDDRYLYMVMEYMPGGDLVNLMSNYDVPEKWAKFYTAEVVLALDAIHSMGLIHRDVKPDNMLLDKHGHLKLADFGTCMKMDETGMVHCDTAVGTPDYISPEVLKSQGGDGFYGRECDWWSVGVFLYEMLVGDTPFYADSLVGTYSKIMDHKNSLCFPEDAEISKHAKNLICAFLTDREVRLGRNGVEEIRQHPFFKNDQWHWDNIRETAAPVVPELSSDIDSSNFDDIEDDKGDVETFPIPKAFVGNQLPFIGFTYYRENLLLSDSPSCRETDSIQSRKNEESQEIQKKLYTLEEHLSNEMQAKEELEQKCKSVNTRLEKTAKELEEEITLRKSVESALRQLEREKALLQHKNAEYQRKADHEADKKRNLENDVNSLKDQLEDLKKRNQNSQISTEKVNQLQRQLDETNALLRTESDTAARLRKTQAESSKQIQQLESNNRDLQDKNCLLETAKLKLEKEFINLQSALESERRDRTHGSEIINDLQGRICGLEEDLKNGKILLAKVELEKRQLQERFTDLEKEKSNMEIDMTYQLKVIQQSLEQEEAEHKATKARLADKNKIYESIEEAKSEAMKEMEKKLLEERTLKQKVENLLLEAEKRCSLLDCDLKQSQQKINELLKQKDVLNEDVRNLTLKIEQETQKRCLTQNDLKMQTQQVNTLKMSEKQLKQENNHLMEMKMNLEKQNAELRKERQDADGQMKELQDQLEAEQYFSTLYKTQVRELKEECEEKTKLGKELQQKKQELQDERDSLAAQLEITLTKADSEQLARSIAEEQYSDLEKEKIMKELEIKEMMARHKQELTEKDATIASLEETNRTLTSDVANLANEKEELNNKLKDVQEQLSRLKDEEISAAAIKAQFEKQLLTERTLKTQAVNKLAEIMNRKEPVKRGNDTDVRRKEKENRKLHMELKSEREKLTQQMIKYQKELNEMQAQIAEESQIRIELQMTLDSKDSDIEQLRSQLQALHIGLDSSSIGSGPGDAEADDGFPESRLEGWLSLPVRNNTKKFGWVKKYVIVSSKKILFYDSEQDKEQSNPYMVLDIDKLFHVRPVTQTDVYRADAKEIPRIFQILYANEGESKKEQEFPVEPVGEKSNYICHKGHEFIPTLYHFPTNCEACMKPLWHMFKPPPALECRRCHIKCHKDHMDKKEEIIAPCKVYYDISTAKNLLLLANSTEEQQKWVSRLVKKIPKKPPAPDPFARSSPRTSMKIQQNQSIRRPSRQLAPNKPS
ROCK1, sequence (Q13464 whole entry, species assumed): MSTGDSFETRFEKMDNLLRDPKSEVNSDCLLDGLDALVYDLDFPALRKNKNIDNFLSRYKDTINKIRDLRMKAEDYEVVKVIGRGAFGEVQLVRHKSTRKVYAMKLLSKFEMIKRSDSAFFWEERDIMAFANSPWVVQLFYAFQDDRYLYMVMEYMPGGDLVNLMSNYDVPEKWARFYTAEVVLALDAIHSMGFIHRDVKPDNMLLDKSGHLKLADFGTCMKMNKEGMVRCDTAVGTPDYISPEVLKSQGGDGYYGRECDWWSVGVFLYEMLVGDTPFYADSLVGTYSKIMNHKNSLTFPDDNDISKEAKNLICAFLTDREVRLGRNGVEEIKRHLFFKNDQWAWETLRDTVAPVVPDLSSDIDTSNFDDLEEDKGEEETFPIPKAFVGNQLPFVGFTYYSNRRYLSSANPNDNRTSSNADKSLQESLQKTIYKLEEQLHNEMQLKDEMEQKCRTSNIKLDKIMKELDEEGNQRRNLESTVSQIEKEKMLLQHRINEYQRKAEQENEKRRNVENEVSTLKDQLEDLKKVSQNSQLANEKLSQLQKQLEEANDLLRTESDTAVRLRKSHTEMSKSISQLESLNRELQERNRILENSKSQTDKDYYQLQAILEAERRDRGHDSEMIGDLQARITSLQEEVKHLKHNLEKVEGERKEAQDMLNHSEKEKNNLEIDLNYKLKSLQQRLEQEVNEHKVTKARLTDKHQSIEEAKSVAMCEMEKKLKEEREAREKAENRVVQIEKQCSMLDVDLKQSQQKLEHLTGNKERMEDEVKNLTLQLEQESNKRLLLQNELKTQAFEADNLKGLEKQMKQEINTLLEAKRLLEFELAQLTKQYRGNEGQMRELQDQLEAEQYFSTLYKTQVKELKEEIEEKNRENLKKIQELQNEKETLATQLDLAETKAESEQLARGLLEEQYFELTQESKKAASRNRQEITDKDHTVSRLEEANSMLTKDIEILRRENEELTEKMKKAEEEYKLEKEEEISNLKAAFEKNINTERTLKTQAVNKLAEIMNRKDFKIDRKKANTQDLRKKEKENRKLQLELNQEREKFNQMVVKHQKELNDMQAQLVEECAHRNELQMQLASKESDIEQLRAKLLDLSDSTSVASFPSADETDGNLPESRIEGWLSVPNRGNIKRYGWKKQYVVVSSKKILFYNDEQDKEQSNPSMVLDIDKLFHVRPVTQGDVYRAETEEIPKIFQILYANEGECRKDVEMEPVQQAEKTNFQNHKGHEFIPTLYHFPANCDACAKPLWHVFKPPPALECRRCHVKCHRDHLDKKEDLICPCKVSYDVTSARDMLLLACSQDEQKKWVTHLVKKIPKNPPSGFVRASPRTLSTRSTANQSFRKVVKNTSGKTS

As a reminder, the IC50 is the midpoint of a concentration-inhibition curve. On to `O=C(Oc1ccc(-c2n[nH]c(=O)c3ccccc23)cc1)N1Cc2ccc(F)cc2C1` [Example 71, 4-(4-Oxo-3,4-dihydrophthalazin-1-yl)phenyl 5-fluoroisoindoline-2-carboxylate], for which the IC50 in assay [1] is 1000 to 50000 nM; in assay [2], 0.1 to 100 nM.
`O=C(c1ccc2c(c1)CCN2C(=O)Cc1ccc(-c2n[nH]c(=O)c3ccccc23)cc1)N1CCOCC1` [Example 296, 4-(4-{2-[5-(morpholine-4-carbonyl)-2,3-dihydro-1H-indol-1-yl]-2-oxoethyl}phenyl)-1,2-dihydrophthalazin-1-one]: the IC50 in assay [1] was 101 to 1000 nM; in assay [2], 0.1 to 100 nM.
For `Cc1cc(NC(=O)c2nn(CC3CNC3)c3ccccc23)ccc1-c1n[nH]c(=O)c2ccccc12` [Example 326, 1-(Azetidin-3-ylmethyl)-N-(3-methyl-4-(4-oxo-3,4-dihydrophthalazin-1-yl)phenyl)-1H-indazole-3-carboxamide, TFA], the half-maximal inhibitory concentration (IC50) is 0.1 to 100 nM in assay [1] and 101 to 1000 nM in assay [2].
Turning to `Cc1cc(NC(=O)N2CCc3ccccc32)ccc1-c1n[nH]c(=O)c2ccccc12` [Example 324, N-(3-Methyl-4-(4-oxo-3,4-dihydrophthalazin-1-yl)phenyl)indoline-1-carboxamide], the IC50 in assay [1] and in assay [2] was 0.1 to 100 nM in each case.
For the compound `CN1CCN(c2ccc(C(=O)Nc3ccc(-c4n[nH]c(=O)c5ccccc45)cc3)cc2)CC1` [Example 64, 4-(4-methylpiperazin-1-yl)-N-[4-(4-oxo-3,4-dihydrophthalazin-1-yl)phenyl]benzamide], the 50% inhibitory concentration (IC50) in assay [1] fell in the range of 101 to 1000 nM; in assay [2], 0.1 to 100 nM.
`O=C(Cc1ccc(-c2n[nH]c(=O)c3ccccc23)cc1)N1CCc2ccc([N+](=O)[O-])cc21` [Example 285, 4-{4-[2-(6-nitro-2,3-dihydro-1H-indol-1-yl)-2-oxoethyl]phenyl}-1,2-dihydrophthalazin-1-one]: the 50% inhibitory concentration (IC50) in assay [1] and in assay [2] was 0.1 to 100 nM each time.
Consider `O=C(Nc1ccc(-c2n[nH]c(=O)c3ccccc23)c(Cl)c1)c1nn(CC2CCOCC2)c2ccccc12` [Example 318, N-[3-chloro-4-(4-oxo-3,4-dihydrophthalazin-1-yl)phenyl]-1-(oxan-4-ylmethyl)-1H-indazole-3-carboxamide], for which the half-maximal inhibitory concentration (IC50) in assay [1] and in assay [2] was 0.1 to 100 nM in each case.
As for `O=C(Nc1ccc(-c2n[nH]c(=O)c3ccccc23)cc1)c1c[nH]c(-c2ccccc2)n1` [Example 230, N-[4-(4-oxo-3,4-dihydrophthalazin-1-yl)phenyl]-2-phenyl-1H-imidazole-4-carboxamide], the IC50 in assay [1] and in assay [2] was 0.1 to 100 nM in each case.
With `COc1cc(NC(=O)c2nn(CC(C)(C)O)c3ccccc23)ccc1-c1n[nH]c(=O)c2ccccc12` [Example 345, 1-(2-Hydroxy-2-methylpropyl)-N-(3-methoxy-4-(4-oxo-3,4-dihydrophthalazin-1-yl)phenyl)-1H-indazole-3-carboxamide], the half-maximal inhibitory concentration (IC50) fell in the range of 101 to 1000 nM in assay [1] and 0.1 to 100 nM in assay [2].
Regarding `Cc1cc(NC(=O)c2nn(CC3CN(C)C3)c3ccccc23)ccc1-c1n[nH]c(=O)c2ccccc12` [Example 330, N-(3-Methyl-4-(4-oxo-3,4-dihydrophthalazin-1-yl)phenyl)-1-((1-methylazetidin-3-yl)methyl)-1H-indazole-3-carboxamide], the results for the half-maximal inhibitory concentration (IC50) in assay [1] and in assay [2] were 0.1 to 100 nM and 101 to 1000 nM, respectively.
For `CC(C)Oc1ccc2cc(C(=O)Nc3ccc(-c4n[nH]c(=O)c5ccccc45)cc3)[nH]c2c1` [Example 128, N-[4-(4-oxo-3,4-dihydrophthalazin-1-yl)phenyl]-6-(propan-2-yloxy)-1H-indole-2-carboxamide], in that order: 0.1 to 100 nM and 0.1 to 100 nM.
Consider `CC(C)=Cn1nc(C(=O)Nc2ccc(-c3n[nH]c(=O)c4ccccc34)cc2)c2ccc(F)cc21` [Example 179, 6-fluoro-1-(2-methylprop-1-en-1-yl)-N-[4-(4-oxo-3,4-dihydrophthalazin-1-yl)phenyl]-1H-indazole-3-carboxamide], for which the IC50 in assay [1] and in assay [2] was 0.1 to 100 nM throughout.
For the compound `CC(C)(C)n1cc(NC(=O)c2ccncc2)c(C(=O)Nc2ccc(-c3n[nH]c(=O)c4ccccc34)cc2)n1` [Example 234, N-(1-tert-butyl-3-{[4-(4-oxo-3,4-dihydrophthalazin-1-yl)phenyl]carbamoyl}-1H-pyrazol-4-yl)pyridine-4-carboxamide], the IC50 in assay [1] lay in the range of 101 to 1000 nM; in assay [2] it was 0.1 to 100 nM.
Consider `O=C(Cc1ccc(-c2n[nH]c(=O)c3ccccc23)cc1)N1CCC(c2ccccc2)CC1` [Example 11, 4-{4-[2-oxo-2-(4-phenylpiperidin-1-yl)ethyl]phenyl}-1,2-dihydrophthalazin-1-one], for which the figures for the IC50 in assay [1] and in assay [2] were 1000 to 50000 nM and 101 to 1000 nM, respectively.
`Cc1ccc2[nH]c(C(=O)Nc3ccc(-c4n[nH]c(=O)c5ccccc45)cc3)cc2c1` [Example 101, 5-methyl-N-[4-(4-oxo-3,4-dihydrophthalazin-1-yl)phenyl]-1H-indole-2-carboxamide]: the IC50 in assay [1] and in assay [2] was 0.1 to 100 nM each time.
Turning to `O=C(Cc1ccc(-c2n[nH]c(=O)c3ccccc23)cc1)Nc1noc2c1CCCC2` [Example 276, 2-[4-(4-oxo-3,4-dihydrophthalazin-1-yl)phenyl]-N-(4,5,6,7-tetrahydro-1,2-benzoxazol-3-yl)acetamide], the concentration for half-maximal inhibition (IC50) in assay [1] was in the range of 1000 to 50000 nM; in assay [2], 0.1 to 100 nM.
For `CC(C)Oc1ccc2c(c1)N(C(=O)Cc1ccc(-c3n[nH]c(=O)c4ccccc34)cc1)CC2` [Example 258, 4-(4-(2-(6-Isopropoxyindolin-1-yl)-2-oxoethyl)phenyl)phthalazin-1(2H)-one] the same measures were 0.1 to 100 nM and 0.1 to 100 nM.
In the case of `Cc1cc(NC(=O)c2c3ccccc3nn2CC2COC2)ccc1-c1n[nH]c(=O)c2ccccc12` [Example 305, N-[3-methyl-4-(4-oxo-3,4-dihydrophthalazin-1-yl)phenyl]-2-(oxetan-3-ylmethyl)-2H-indazole-3-carboxamide], the IC50 in assay [1] and in assay [2] was 1000 to 50000 nM throughout.
With `O=C(Nc1ccc(-c2n[nH]c(=O)c3ccccc23)cc1)c1nn(Cc2cccnc2)c2ccccc12` [Example 161, N-[4-(4-oxo-3,4-dihydrophthalazin-1-yl)phenyl]-1-(pyridin-3-ylmethyl)-1H-indazole-3-carboxamide], the IC50 in assay [1] and in assay [2] was 0.1 to 100 nM in each case.
Turning to `O=C(O)Cn1nc(C(=O)Nc2ccc(-c3n[nH]c(=O)c4ccccc34)cc2)c2ccccc21` [Example 328, 2-(3-{[4-(4-Oxo-3,4-dihydrophthalazin-1-yl)phenyl]carbamoyl}-1H-indazol-1-yl)acetic Acid], the concentration for half-maximal inhibition (IC50) is 101 to 1000 nM in assay [1] and 0.1 to 100 nM in assay [2].
Turning to `O=C(Nc1ccc(-c2c[nH]c(=O)c3ccccc23)cc1)c1onc2ccccc12` [Example 247, N-(4-(1-Oxo-1,2-dihydroisoquinolin-4-yl)phenyl)benzo[c]isoxazole-3-carboxamide], the IC50 in assay [1] and in assay [2] was 0.1 to 100 nM each time.
Regarding `O=C(Nc1ccc(-c2n[nH]c(=O)c3ccccc23)cc1)c1cnn(C2CCOC2)c1` (centres unmarked) [Example 390, N-(4-(4-Oxo-3,4-dihydrophthalazin-1-yl)phenyl)-1-(tetrahydrofuran-3-yl)-1H-pyrazole-4-carboxamide], the concentration for half-maximal inhibition (IC50) fell in the range of 101 to 1000 nM in assay [1] and 0.1 to 100 nM in assay [2].
Take `O=C(Cc1ccc(-c2n[nH]c(=O)c3ccccc23)cc1)Nc1ccc2ncsc2c1` [Example 21]: the IC50 fell in the range of 101 to 1000 nM in assay [1] and 0.1 to 100 nM in assay [2].
For `CN(C)c1cccc(C(=O)Nc2ccc(-c3n[nH]c(=O)c4ccccc34)cc2)c1` [Example 66, 3-(dimethylamino)-N-[4-(4-oxo-3,4-dihydrophthalazin-1-yl)phenyl]benzamide], the IC50 in assay [1] and in assay [2] was 0.1 to 100 nM each time.
As to `Cc1cc(NC(=O)c2c[nH]c3ncc(F)cc23)ccc1-c1n[nH]c(=O)c2ccccc12` [Example 308, 5-fluoro-N-[3-methyl-4-(4-oxo-3,4-dihydrophthalazin-1-yl)phenyl]-1H-pyrrolo [2,3-b]pyridine-3-carboxamide], the concentration for half-maximal inhibition (IC50) in assay [1] and in assay [2] was 0.1 to 100 nM in each case.
Regarding `O=C(Cc1ccc(-c2n[nH]c(=O)c3ccccc23)cc1)NC1CCC1` [Example 19, N-cyclobutyl-2-[4-(4-oxo-3,4-dihydrophthalazin-1-yl)phenyl]acetamide], the half-maximal inhibitory concentration (IC50) in assay [1] and in assay [2] was 1000 to 50000 nM in each case.
On to `O=C(Cc1ccc(-c2n[nH]c(=O)c3ccccc23)cc1)N[C@@H]1CCc2ccccc21` [Example 81, (R)—N-(2,3-Dihydro-1H-inden-1-yl)-2-(4-(4-oxo-3,4-dihydrophthalazin-1-yl)phenyl)acetamide], for which the figures for the half-inhibitory concentration (IC50) in assay [1] and in assay [2] were 1000 to 50000 nM and 101 to 1000 nM, respectively.
With `CCn1ccc(C(=O)Nc2ccc(-c3n[nH]c(=O)c4ccccc34)cc2)n1` [Example 204, 1-ethyl-N-[4-(4-oxo-3,4-dihydrophthalazin-1-yl)phenyl]-1H-pyrazole-3-carboxamide], the concentration for half-maximal inhibition (IC50) lay within 101 to 1000 nM in assay [1] and 0.1 to 100 nM in assay [2].
For `CN1CCC(Cn2nc(C(=O)Nc3ccc(-c4n[nH]c(=O)c5ccccc45)cc3)c3ccccc32)CC1` [Example 356, 1-((1-Methylpiperidin-4-yl)methyl)-N-(4-(4-oxo-3,4-dihydrophthalazin-1-yl)phenyl)-1H-indazole-3-carboxamide], in that order: 0.1 to 100 nM and 101 to 1000 nM.
As to `O=C(Nc1ccc(-c2n[nH]c(=O)c3ccccc23)cc1)c1cnn2ccc(OCCN3CCOCC3)cc12` [Example 187, 5-[2-(morpholin-4-yl)ethoxy]-N-[4-(4-oxo-3,4-dihydrophthalazin-1-yl)phenyl]pyrazolo[1,5-a]pyridine-3-carboxamide], the IC50 in assay [1] and in assay [2] was 0.1 to 100 nM throughout.
As to `O=C(Nc1ccc(-c2n[nH]c(=O)c3ccccc23)cc1)C1CC(c2ccccc2)=NO1` (centres unmarked) [Example 196, N-[4-(4-oxo-3,4-dihydrophthalazin-1-yl)phenyl]-3-phenyl-4,5-dihydro-1,2-oxazole-5-carboxamide], the IC50 in assay [1] lay within 1000 to 50000 nM; in assay [2], 101 to 1000 nM.
